# Assay results published in patent US20240358767A1, “STEM CELL DIFFERENTIATION AND CHEMICAL COMPOUNDS” (VERTEX PHARMACEUTICALS INCORPORATED, priority 2021, published 2024).
# Like-named read-outs stand apart in the source and are kept apart here.
# Key:
# [1] = system: Stem cells; assay: 384-well screen of small molecule compounds for Stage 1 differentiation to Sox17-positive definitive endoderm cells (immunostaining, DAPI); conditions: for Relative to 100 ng/mL AA (percentage of Sox17-positive cells normalized by the percentage with 100 ng/mL AA): Stage 1 condition with 10 ng/mL AA and the test compound, 384-well plates; for signal in Oct 4 channel / signal in Sox17 channel: 10 ng/mL AA plus test compound, about 8 concentrations, dose-responsive manner; for nuclear blebbing in the resulting cell population: visual inspection
# [2] = target: EZH2 (Homo sapiens, UniProt Q15910); conditions: cited from earlier work
# EZH2, sequence (Q15910 whole entry, species assumed): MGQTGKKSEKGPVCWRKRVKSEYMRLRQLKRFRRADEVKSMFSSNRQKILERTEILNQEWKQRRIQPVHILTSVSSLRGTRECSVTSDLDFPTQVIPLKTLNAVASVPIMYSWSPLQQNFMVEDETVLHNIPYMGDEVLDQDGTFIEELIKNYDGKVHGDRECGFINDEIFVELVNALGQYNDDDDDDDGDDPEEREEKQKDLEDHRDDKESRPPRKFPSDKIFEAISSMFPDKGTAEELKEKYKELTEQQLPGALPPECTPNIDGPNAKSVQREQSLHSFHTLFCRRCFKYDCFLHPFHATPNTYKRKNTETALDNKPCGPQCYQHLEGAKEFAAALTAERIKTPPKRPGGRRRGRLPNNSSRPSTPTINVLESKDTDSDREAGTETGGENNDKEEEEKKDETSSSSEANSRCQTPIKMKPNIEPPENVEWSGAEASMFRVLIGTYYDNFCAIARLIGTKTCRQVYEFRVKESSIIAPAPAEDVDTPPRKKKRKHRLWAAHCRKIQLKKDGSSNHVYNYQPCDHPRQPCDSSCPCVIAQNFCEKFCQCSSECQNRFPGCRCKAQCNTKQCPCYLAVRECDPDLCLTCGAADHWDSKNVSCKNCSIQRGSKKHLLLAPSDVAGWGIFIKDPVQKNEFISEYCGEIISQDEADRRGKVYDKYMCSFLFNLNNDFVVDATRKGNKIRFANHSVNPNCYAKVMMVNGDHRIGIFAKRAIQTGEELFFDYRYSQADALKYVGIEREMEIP
# EZH2, sequence (O75530 whole entry partner, species assumed): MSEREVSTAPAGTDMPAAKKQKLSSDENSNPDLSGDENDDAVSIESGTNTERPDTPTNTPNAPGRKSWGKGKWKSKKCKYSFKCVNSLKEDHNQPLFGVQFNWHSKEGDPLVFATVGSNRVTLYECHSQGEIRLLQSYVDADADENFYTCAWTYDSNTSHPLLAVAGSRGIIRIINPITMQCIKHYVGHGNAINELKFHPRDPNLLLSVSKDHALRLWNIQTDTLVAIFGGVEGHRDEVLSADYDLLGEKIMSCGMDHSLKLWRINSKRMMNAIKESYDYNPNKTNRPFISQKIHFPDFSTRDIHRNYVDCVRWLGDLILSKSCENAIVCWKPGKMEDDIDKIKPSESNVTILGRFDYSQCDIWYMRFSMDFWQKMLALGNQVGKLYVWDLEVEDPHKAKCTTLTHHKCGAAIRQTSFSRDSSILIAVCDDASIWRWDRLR
# EZH2, sequence (Q15022 whole entry partner, species assumed): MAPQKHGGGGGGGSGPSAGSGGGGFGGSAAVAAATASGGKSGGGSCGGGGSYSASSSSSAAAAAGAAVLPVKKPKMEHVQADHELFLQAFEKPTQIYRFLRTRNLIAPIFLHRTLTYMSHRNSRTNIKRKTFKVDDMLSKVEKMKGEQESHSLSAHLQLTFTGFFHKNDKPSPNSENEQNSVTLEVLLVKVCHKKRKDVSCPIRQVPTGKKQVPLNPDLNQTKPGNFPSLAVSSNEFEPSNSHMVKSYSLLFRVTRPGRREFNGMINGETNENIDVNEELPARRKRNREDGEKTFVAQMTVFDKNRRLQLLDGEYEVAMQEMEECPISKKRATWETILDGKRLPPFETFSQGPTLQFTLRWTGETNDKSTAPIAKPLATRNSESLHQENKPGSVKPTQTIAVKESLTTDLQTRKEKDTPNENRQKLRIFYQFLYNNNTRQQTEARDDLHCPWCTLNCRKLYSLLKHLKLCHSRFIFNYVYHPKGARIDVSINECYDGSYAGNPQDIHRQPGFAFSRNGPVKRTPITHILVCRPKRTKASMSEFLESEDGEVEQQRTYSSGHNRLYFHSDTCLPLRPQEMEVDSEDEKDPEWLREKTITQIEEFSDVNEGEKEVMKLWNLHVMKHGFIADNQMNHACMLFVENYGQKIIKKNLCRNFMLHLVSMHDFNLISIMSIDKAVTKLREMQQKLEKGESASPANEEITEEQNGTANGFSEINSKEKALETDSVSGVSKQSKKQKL
# [3] = system: Stem cells
Structure (SMILES),nuclear blebbing in the resulting cell population [1],Relative to 100 ng/mL AA (percentage of Sox17-positive cells normalized by the percentage with 100 ng/mL AA) [1],signal in Oct 4 channel [1],signal in Sox17 channel [1],selectivity compared with GSK126 [2],selectivity over EZH1 ([2]; EZH2 vs EZH1),nuclear blebbing in the resulting cell population [3]
Cc1c(CN2CCN(C(=O)[C@H](C)O)CC2)sc2c(N3CCOCC3)nc(-c3cnc(N)nc3)nc12 [Apitolisib],–,168%,–,–,–,–,–
Nc1nc(-c2nn(Cc3ccccc3F)c3ncccc23)ncc1C1CC1 [BAY 41-2272],not to induce,145%,decrease,increase,–,–,–
CCCc1cc(C)[nH]c(=O)c1CNC(=O)c1cc(-c2ccc(N3CCN(C(C)C)CC3)nc2)cc2c1cnn2C(C)C [UNC1999],–,–,–,–,less selective,–,–
CC[C@H](C)n1cc(C)c2c(C(=O)NCc3c(C)cc(C)[nH]c3=O)cc(-c3ccc(N4CCNCC4)nc3)cc21 [GSK126],–,–,–,–,–,150 fold,–
O=C(Nc1cccc2cccnc12)c1ccc(N2C(=O)[C@@H]3[C@H](C2=O)[C@@H]2C=C[C@H]3C2)cc1 [IWR-1-endo],–,–,decrease,increase,–,–,not to induce
O=C(c1ccc(-c2nc3ccc(F)cc3o2)cc1)N1CCN(C(=O)C2(O)CC2)CC1 [FT113],–,64%,–,–,–,–,–
COc1ccc(-c2ccc3c(N4CCOC[C@@H]4C)nc(N4CCOC[C@@H]4C)nc3n2)cc1CO [AZD8055],not to induce,117%,decrease,increase,–,–,–
Cc1nc2c(-c3cnc(N)nc3)nc(N3CCOCC3)nc2n1C(C)C [VS-5584],–,–,–,–,–,–,not to induce
Nc1ccc(C(=O)Nc2cccc(-c3nc(N4CCOCC4)c4oc5ncccc5c4n3)c2)cn1 [YM201636],–,–,decrease,increase,–,–,–

# Second part, led by results:
nuclear blebbing in the resulting cell population [1],Structure (SMILES),Relative to 100 ng/mL AA (percentage of Sox17-positive cells normalized by the percentage with 100 ng/mL AA) [1],signal in Oct 4 channel [1],signal in Sox17 channel [1],selectivity compared with GSK126 [2],selectivity over EZH1 ([2]; EZH2 vs EZH1),nuclear blebbing in the resulting cell population [3]
not to induce,COc1ccc(-c2sc(NC(=O)C(C)(C)C)nc2C)cc1S(=O)(=O)Nc1ccc(O)cc1 [PI4KIIIbeta-IN-10],–,decrease,increase,–,–,–
not to induce,Cc1c(CN2CCN(S(C)(=O)=O)CC2)sc2c(N3CCOCC3)nc(-c3cnc(N)nc3)nc12 [GNE-477],160%,decrease,increase,–,–,–
not to induce,CCN1CCN(Cc2ccc(C(=O)Nc3ccc(C)c(Oc4ccc5c(c4)CC(=O)N5)c3)cc2C(F)(F)F)CC1 [DDR1-IN-1],120%,decrease,increase,–,–,–
not to induce,CC(C)n1c([C@H](C)Nc2ncnc(N)c2C#N)cc2cccc(-c3ccc(=O)n(C)c3)c2c1=O [IPI-3063],130%,decrease,increase,–,–,–
not to induce,CC(C)N1CCN(Cc2cnc(-c3cc(-c4cccc5[nH]ccc45)cc4[nH]ncc34)o2)CC1 [Nemiralisib],–,decrease,increase,–,–,–
not to induce,COc1ncc(-c2ccc3nccc(-c4ccnnc4)c3c2)cc1NS(=O)(=O)c1ccc(F)cc1F [Omipalisib],75%,decrease,increase,–,–,–
